Reference: US8268635B2, “Methods of identifying agents that selectively activate p38 and/or NKkB signaling” (priority 2006, dated 2012)
Where no end group is shown, it is not given here.

Legend:
Type in all cases: cell-based, human
[1] = tested on: E-selectin; test: E-selectin expression on endothelial cells; conditions: TNF 100 or 1000 U/ml, TNF70-80 1-50 μM; data not presented
[2] = tested on: JNK; test: JNK activity in HUVEC (GST-jun solid phase assay); conditions: 15 min; TNF 100 and 1000 U/ml, TNF70-80 1-50 μM
Method: (§1) The level of myelin basic protein phosphorylation was quantitated by an Instant Imager.
(§2) KHS (hereon referred to as “GCKR”) activity was assayed as described previously using myelin basic protein as a substrate (Shi, C. S., Leonardi, A., Kyriakis, J., Siebenlist, U., and Kerhl, J. H. (1999) J. Immunol. 163: 3279-3285). ASK-1 activation was determined in immunoprecipitates of ASK-1 by autophosphorylation (Kyriakis, J. M., and Auruch, J. (2001) Physiol. Rev. 81: 807-869). p38 and ERK activities were determined as described using myelin basic protein as a substrate (Hii, C. S., Huang, Z. H., Bilney, A., Costabile, M., Murray, A. W., Rathjen, D. A., Der, C. J., and Ferrante, A. (1998) J. Biol. Chem. 273: 19277-19282). […] A solid phase assay using glutathione-S-transferase (GST)-conjugated-jun (1-79) was employed to assay JNK activity (Hii, C. S., Huang, Z. H., Bilney, A., Costabile, M., Murray, A. W., Rathjen, D. A., Der, C. J., and Ferrante, A. (1998) J. Biol. Chem. 273: 19277-19282). Phosphorylated ASK-1, myelin basic protein and GST-jun (1-79) were fractionated on 8, 16 and 12% SDS polyacrylamide gels, respectively, and the bands were detected and radioactivity determined using an Instant Imager (Packard Instruments, Canberra, Australia).

[3] = tested on: p38; test: p38 activity in HEK293T cells
Method: HEK 293T cells were stably transfected with wild-type TRAF2, a dominant-negative TRAF2 (ΔTRAF2) or an empty vector. TNF70-80 (10 μM) was added and the cells were incubated for 5 min. at 37° C., lysed and p38 immunoprecipitated. Kinase activity was assayed using myelin basic protein as a substrate. The data (representative digital radiogram and profile of phosphorylated MBP) shown are representative of 2 experiments.
HEK 293T cells were obtained from the American Type Culture Collection and maintained in DMEM, supplemented with 10% fetal calf serum. Cells, stably transfected with pRK5-TRAF2-FLAG, pRK5-TRAF287-501-FLAG (Dr. V. Dixit, Genentech Inc., South San Francisco) or an empty plasmid using LipofectAMINE 2000, were obtained from Dr P Xia, Hanson Institute, Adelaide, Australia) (Xia, P., Wang, L., Moretti, P. A., Albanese, N., Chai, F., Pitson, S. M., D'Andrea, R. J., Gamble, J. R., and Vadas, M. A. (2002) J. Biol. Chem. 277: 7996-8003).
Lysates containing equal amounts of protein (0.5-1 mg) were precleared with protein A sepharose (4° C.) before being incubated with anti-KHS, anti-p38, anti-ASK-1 or anti-ERK2 antibody (3 μg/sample). After mixing for 2 h (4° C.), the immune complexes were precipitated by the addition of protein A sepharose. The immunoprecipitates were collected by centrifugation (16,000 g×15s) and washed once with buffer A (4° C.), once with buffer B (10 mM Tris/HCl, pH 7.6, 100 mM NaCl, 1 mM EDTA and 100 μM […] and once with assay buffer (Hii, C. S., Huang, Z. H., Bilney, A., Costabile, M., Murray, A. W., Rathjen, D. A., Der, C. J., and Ferrante, A. (1998) J. Biol. Chem. 273: 19277-19282).
KHS (hereon referred to as “GCKR”) activity was assayed as described previously using myelin basic protein as a substrate (Shi, C. S., Leonardi, A., Kyriakis, J., Siebenlist, U., and Kerhl, J. H. (1999) J. Immunol. 163: 3279-3285). ASK-1 activation was determined in immunoprecipitates of ASK-1 by autophosphorylation (Kyriakis, J. M., and Auruch, J. (2001) Physiol. Rev. 81: 807-869). p38 and ERK activities were determined as described using myelin basic protein as a substrate (Hii, C. S., Huang, Z. H., Bilney, A., Costabile, M., Murray, A. W., Rathjen, D. A., Der, C. J., and Ferrante, A. (1998) J. Biol. Chem. 273: 19277-19282). […] A solid phase assay using glutathione-S-transferase (GST)-conjugated-jun (1-79) was employed to assay JNK activity (Hii, C. S., Huang, Z. H., Bilney, A., Costabile, M., Murray, A. W., Rathjen, D. A., Der, C. J., and Ferrante, A. (1998) J. Biol. Chem. 273: 19277-19282). Phosphorylated ASK-1, myelin basic protein and GST-jun (1-79) were fractionated on 8, 16 and 12% SDS polyacrylamide gels, respectively, and the bands were detected and radioactivity determined using an Instant Imager (Packard Instruments, Canberra, Australia). […]

[4] = tested on: neutrophils; test: Neutrophil superoxide production, lucigenin chemiluminescence assay; conditions: agent alone as stimulus
Method: Neutrophils were pre-treated with varying concentrations of SB203580 for 30 min and then exposed to 10 μM TNF70-80. The lucigenin enhanced chemiluminescence produced by the cells was measured in a luminometer. The peak initial rate of chemiluminescence produced is presented as the mean±sem of six experiments. The response in the presence of the inhibitor is expressed as a % of the control response.
Neutrophil superoxide production was measured as the chemiluminescence generated by the reduction of lucigenin, essentially as described previously (Kumaratilake, L. M., Rathjen, D. A., Mack, P., Widmer, F., Prasertsiriroj, V., and Ferrante, A. (1995) J. Clin. Invest. 95: 2315-2323). Briefly, to 1×10^6 neutrophils in 400 μl of HBSS was added 100 μl of stimulus and 500 μl of 250 μg/ml of lucigenin. The chemiluminescence was measured in a luminometer (Berthold Technologies, Bad Wildbad, Germany) over a 20 min period and the data imported into Microsoft Excel (Redmond, Wash.).
The cells were placed in a water-jacketed luminometer chamber (37° C.) (Autolumat Plus Model LB 953, Berthold Technologies, Bundoora, Australia) and the resulting light output recorded in millivolts (mV) at 10 second intervals. The data was analysed with Multiuser software (Berthold Tubemaster, Bundoora, Australia). The results are expressed as peak superoxide produced.
Various concentrations of TNFR1 fragment or diluent were added to neutrophils (106 in 100 μl HBSS) and incubated at 37° C. for 30 min 5% CO2 in air. After incubation 500 μl of lucigenin (250 μM, final), 100 μl of TNF70-80 (100 μg) were added and the final volume was adjusted to 1 ml.
Superoxide production by human neutrophils was measured by the reduction of the fluorescent lucigenin, (9,9′-bis(N-methyl-acridinium nitrate) (Sigma Chemical Company). This provides a direct and specific measure of agonist-induced superoxide production. Lucigenin-dependant chemiluminescence was measured as described previously Gyllenhannar H. (1987) J. Immunol. Methods 97:209-213. Briefly, 50 μl of 100 mg/ml of peptide or diluent and 250 ml of lucigenin was added to neutrophils (5×10^5 in 50 μl HBSS). The cells were placed in a water-jacketed luminometer chamber (37° C.) (Autolumat Plus Model LB 953, Berthold Technologies, Bundoora, Australia) and the resulting light output recorded in millivolts (mV) at 10 second intervals. The data was analysed with Multi-user software (Berthold Tubemaster, Bundoora, Australia).
Data are presented as mean±SEM of 3 experiments.

[5] = tested on: p38; test: p38 activity in HUVEC (immunoprecipitation, myelin basic protein substrate); conditions: 5 min; TNF 1,000 U/ml, peptides 10 μM
Method: as §1, §2

PSTHVLITHTI-OH [TNF70-80]
expression of E-selectin on endothelial cells [1]: but not TNF70-80 (1-50 μM) stimulated the expression of E-selectin | activity of JNK in HUVEC [2]: failed to stimulate the activity of JNK | activity of p38 in HEK293T cells [3]: able to stimulate the activity of p38 | p38 activation in HEK293T cells expressing dominant-negative ΔTRAF2 ([3]; TNF70-80 10 μM, 5 min): substantial attenuation of this response | p38 activation in HEK293T cells over expressing TRAF2 compared to empty plasmid ([3]; TNF70-80 10 μM, 5 min): enhanced the activation of p38 by TNF70-80 | increase of p38 activity over control in HEK293T cells ([3]; treatment for 5 min, p<0.05, n=3): 243+27 % over control | stimulation of neutrophil respiratory burst / superoxide production [4]: stimulated a respiratory burst | activity of p38 in HUVEC [5]: stimulated the activity of p38
